Results as given in US9198433B2, “Substituted benzene fungicides” (E I DU PONT DE NEMOURS AND COMPANY, priority 2007, dated 2015).
Marks after values point to notes of the source that are not given here.

How the values were obtained:
Format in all cases: in vivo
Septoria tritici = experiment: Test D: wheat leaf blotch, preventive spray on wheat seedlings, disease rating
From the text: The test compounds were first dissolved in acetone in an amount equal to 3% of the final volume and then suspended at the desired concentration (in ppm) in acetone and purified water (50/50 mix) containing 250 ppm of the surfactant Trem® 014 (polyhydric alcohol esters). The resulting test suspensions were then used in Tests A-L. Spraying a 200 ppm test suspension to the point of run-off on the test plants was the equivalent of an application rate of 500 g/ha. The test suspension was sprayed to the point of run-off on wheat seedlings. The following day the seedlings were inoculated with a spore suspension of Septoria tritici (the causal agent of wheat leaf blotch) and incubated in a saturated atmosphere at 24° C. for 48 h, and then moved to a growth chamber at 20° C. for 19 days, after which time disease ratings were made. […] A dash (-) indicates no test results. All results are for 200 ppm except where followed by an “*”, which indicates 40 ppm or “**”, which indicates 50 ppm.

[1] = system: Erysiphe graminis f. sp. tritici; experiment: Test A: wheat powdery mildew, preventive spray on wheat seedlings, disease rating
From the text: (§1) The test compounds were first dissolved in acetone in an amount equal to 3% of the final volume and then suspended at the desired concentration (in ppm) in acetone and purified water (50/50 mix) containing 250 ppm of the surfactant Trem® 014 (polyhydric alcohol esters). The resulting test suspensions were then used in Tests A-L. Spraying a 200 ppm test suspension to the point of run-off on the test plants was the equivalent of an application rate of 500 g/ha. The test suspension was sprayed to the point of run-off on wheat seedlings. […] A dash (-) indicates no test results. All results are for 200 ppm except where followed by an “*”, which indicates 40 ppm or “**”, which indicates 50 ppm.

[2] = system: Puccinia recondita f. sp. tritici; experiment: Test B: wheat leaf rust, preventive spray on wheat seedlings, disease rating
From the text: as §1

Alternaria solani = experiment: Test H: tomato early blight, preventive spray on tomato seedlings, disease rating
From the text: (§2) The test compounds were first dissolved in acetone in an amount equal to 3% of the final volume and then suspended at the desired concentration (in ppm) in acetone and purified water (50/50 mix) containing 250 ppm of the surfactant Trem® 014 (polyhydric alcohol esters). The resulting test suspensions were then used in Tests A-L. Spraying a 200 ppm test suspension to the point of run-off on the test plants was the equivalent of an application rate of 500 g/ha. The test suspension was sprayed to the point of run-off on tomato seedlings. […] A dash (-) indicates no test results. All results are for 200 ppm except where followed by an “*”, which indicates 40 ppm or “**”, which indicates 50 ppm.

Botrytis cinerea = experiment: Test F: tomato Botrytis, preventive spray on tomato seedlings, disease rating
From the text: as §2

Septoria nodorum = experiment: Test C: wheat glume blotch, preventive spray on wheat seedlings, disease rating
From the text: as §1

| Compound | Percentage Disease Control, Test D (Septoria tritici; 40 ppm (*)) | Percentage Disease Control, Test A ([1]; 40 ppm (*)) | Percentage Disease Control, Test B ([2]; 40 ppm (*)) | Percentage Disease Control, Test H (Alternaria solani; 200 ppm) | Percentage Disease Control, Test F (Botrytis cinerea; 200 ppm) | Percentage Disease Control, Test C (Septoria nodorum; 40 ppm (*)) | Percentage Disease Control, Test A ([1]; 200 ppm) | Percentage Disease Control, Test H (Alternaria solani; 40 ppm (*)) | Percentage Disease Control, Test B ([2]; 200 ppm) | Percentage Disease Control, Test C (Septoria nodorum; 200 ppm) | Percentage Disease Control, Test F (Botrytis cinerea; 40 ppm (*)) | Percentage Disease Control, Test D (Septoria tritici; 200 ppm) |
| --- | --- | --- | --- | --- | --- | --- | --- | --- | --- | --- | --- | --- |
| COC(=O)NCc1cc(-c2cc(C(F)(F)F)n(CCC(C)(C)C)n2)ccc1Cl [Cmpd 101] | 95* % | 98* % | 99* % | 0% | 0% | 100* % | – | – | – | – | – | – |
| COC(=O)NCc1cc(-c2ccn(-c3nc(C(C)C)ns3)n2)ccc1Cl [Cmpd 104] | 100* % | 100* % | 100* % | 40% | 0% | 100* % | – | – | – | – | – | – |
| COC(=O)NCc1cc(-c2ccn(-c3nc(C)ns3)n2)ccc1Cl [Cmpd 105] | 99* % | – | 100* % | – | 0% | 100* % | 51% | 90* % | – | – | – | – |
| COC(=O)NCc1cc(-c2ccn(-c3ccc(OC)cc3)n2)ccc1Cl [Cmpd 106] | 100* % | 98* % | 100* % | – | 0% | 100* % | – | 92* % | – | – | – | – |
| COC(=O)NCc1cc(-c2ccn(-c3cccc(OC)c3)n2)ccc1Cl [Cmpd 107] | 99* % | 100* % | 100* % | – | 89% | 100* % | – | 99* % | – | – | – | – |
| COC(=O)NCc1cc(-c2ccn(-c3ccc(C(=O)OC)cc3)n2)ccc1Cl [Cmpd 108] | 98* % | – | – | 28% | 0% | – | 0% | – | 86% | 95% | – | – |
| COC(=O)NCc1cc(-c2ccn(-c3ccc(C)cc3)n2)ccc1Cl [Cmpd 109] | 99* % | 98* % | 100* % | – | – | 100* % | – | 100* % | – | – | 92* % | – |
| COC(=O)NCc1cc(-c2ccn(-c3ccc(C(C)C)cc3)n2)ccc1Cl [Cmpd 110] | 97* % | 100* % | 100* % | 85% | – | 100* % | – | – | – | – | 96* % | – |
| COC(=O)NCc1cc(-c2ccn(-c3ccc(Br)cc3)n2)ccc1Cl [Cmpd 111] | 100* % | 99* % | 100* % | – | 95% | 100* % | – | 90* % | – | – | – | – |
| COC(=O)NCc1cc(-c2ccn(-c3cccc(Br)c3)n2)ccc1Cl [Cmpd 112] | 100* % | – | 99* % | 93% | 0% | 100* % | 88% | – | – | – | – | – |
| COC(=O)NCc1cc(-c2ccn(-c3cccc(C#N)c3)n2)ccc1Cl [Cmpd 113] | – | – | – | 0% | 24% | – | 92% | – | 99% | 100% | – | 100% |
| COC(=O)NCc1cc(-c2ccn(-c3ccc(C#N)cc3)n2)ccc1Cl [Cmpd 114] | – | – | – | 0% | 0% | – | 93% | – | 99% | 100% | – | 100% |
| COC(=O)NCc1cc(-c2ccn(-c3cccc(F)c3)n2)ccc1Cl [Cmpd 115] | – | – | – | 96% | 32% | – | 98% | – | 99% | 100% | – | 100% |
| COC(=O)NCc1cc(-c2ccn(-c3ccc(F)cc3)n2)ccc1Cl [Cmpd 116] | – | – | – | 99% | 0% | – | 99% | – | 100% | 100% | – | 96% |
| COC(=O)NCc1cc(-c2ccn(-c3ccc(Cl)c(Cl)c3)n2)ccc1Cl [Cmpd 117] | – | – | – | 95% | 94% | – | 98% | – | 99% | 100% | – | 100% |
| COC(=O)NCc1cc(-c2ccn(-c3ccc(F)c(F)c3)n2)ccc1Cl [Cmpd 118] | – | – | – | 99% | 40% | – | 100% | – | 100% | 100% | – | 100% |
| COC(=O)NCc1cc(-n2ccc(-c3cccc(C(F)(F)F)c3)n2)ccc1Cl [Cmpd 119] | 100* % | 100* % | 100* % | 57% | 51% | 100* % | – | – | – | – | – | – |
| COC(=O)NCc1cc(-n2cnc(-c3cccc(C(F)(F)F)c3)n2)ccc1Cl [Cmpd 120] | 94* % | 98* % | – | 0% | 0% | – | – | – | 79% | 0% | – | – |
| COC(=O)NCc1cc(-n2ccc(-c3cccc(Br)c3)n2)ccc1Cl [Cmpd 121] | 99* % | 98* % | 98* % | – | 0% | 100* % | – | 90* % | – | – | – | – |
| COC(=O)NCc1cc(-n2ccc(-c3ccc(Cl)cc3)n2)ccc1Cl [Cmpd 122] | 100* % | 100* % | 100* % | – | 63% | 100* % | – | 97* % | – | – | – | – |
| COC(=O)NCc1cc(-n2ccc(-c3cccc(Cl)c3)n2)ccc1Cl [Cmpd 123] | 99* % | 98* % | 99* % | 87% | 63% | 100* % | – | – | – | – | – | – |
| COC(=O)NCc1cc(-n2ccc(-c3ccc(Br)cc3)n2)ccc1Cl [Cmpd 124] | 100* % | 100* % | 100* % | – | 0% | 100* % | – | 99* % | – | – | – | – |
